Here are results for 19 compounds from US20250171495A1, “MUTLI-TARGETED SERINE PROTEASE INHIBITORS FOR TREATMENT OF CANCER AND VIRAL INFECTION” (Washington University, priority 2023, published 2025).

Common to all, as to assay type: biochemical
For assay [1], the target named is T1, hepsin (Homo sapiens, UniProt P05981).
T1 construct: purchased R&D Systems 4776-SE-010
In words: Fluorogenic kinetic enzyme inhibitor assay, hepsin.

Assay [2] has as its target T2, HGFA (Homo sapiens, UniProt Q04756).
T2 construct: purchased R&D Systems 1514-SE-010
T2 sequence (Q04756 408-655 limits assumed): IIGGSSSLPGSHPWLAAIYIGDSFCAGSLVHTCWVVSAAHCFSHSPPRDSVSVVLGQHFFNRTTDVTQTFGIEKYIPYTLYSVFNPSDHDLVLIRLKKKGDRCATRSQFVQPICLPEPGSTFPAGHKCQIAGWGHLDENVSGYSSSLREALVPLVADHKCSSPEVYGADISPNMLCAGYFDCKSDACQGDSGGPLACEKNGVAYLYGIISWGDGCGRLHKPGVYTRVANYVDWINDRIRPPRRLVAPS
T2 sequence (Q04756 373-407 partner limits assumed): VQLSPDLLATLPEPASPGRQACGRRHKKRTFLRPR
In words: Fluorogenic kinetic enzyme inhibitor assay, HGFA. The conditions noted are these: read-out: HGFA IC50.

In assay [3] the target is T3, matriptase (Homo sapiens, UniProt Q9Y5Y6).
T3 construct: purchased R&D Systems 3946-SEB-010
T3 sequence (Q9Y5Y6 615-855 limits assumed): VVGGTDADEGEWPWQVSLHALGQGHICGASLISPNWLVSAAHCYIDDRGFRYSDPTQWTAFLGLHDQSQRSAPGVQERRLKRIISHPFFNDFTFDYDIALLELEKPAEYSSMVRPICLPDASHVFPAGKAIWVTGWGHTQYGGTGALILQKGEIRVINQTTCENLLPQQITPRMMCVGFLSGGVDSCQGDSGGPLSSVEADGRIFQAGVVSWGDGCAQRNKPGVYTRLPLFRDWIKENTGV
The assay is described as follows: Fluorogenic kinetic enzyme inhibitor assay, matriptase.

Assay [4] concerns the target TMPRSS2 (Homo sapiens, UniProt O15393). In words: Fluorogenic kinetic enzyme inhibitor assay, TMPRSS2. Also noted: purchased Cusabio Technology CSB-YP023924HU.

Like-named read-outs stand apart in the source and are kept apart here.

TMPRSS2, sequence (O15393 106-492 limits assumed): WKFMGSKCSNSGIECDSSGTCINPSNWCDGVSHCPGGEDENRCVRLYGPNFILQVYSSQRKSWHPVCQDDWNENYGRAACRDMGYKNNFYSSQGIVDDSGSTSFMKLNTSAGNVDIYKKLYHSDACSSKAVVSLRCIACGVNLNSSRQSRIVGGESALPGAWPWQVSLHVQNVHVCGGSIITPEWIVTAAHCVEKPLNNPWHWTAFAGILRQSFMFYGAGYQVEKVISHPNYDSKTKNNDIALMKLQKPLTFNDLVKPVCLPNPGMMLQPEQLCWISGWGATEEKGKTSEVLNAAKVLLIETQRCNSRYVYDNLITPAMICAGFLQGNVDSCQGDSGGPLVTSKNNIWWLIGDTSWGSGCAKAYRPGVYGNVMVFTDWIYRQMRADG
T1 sequence (P05981 163-417 limits assumed): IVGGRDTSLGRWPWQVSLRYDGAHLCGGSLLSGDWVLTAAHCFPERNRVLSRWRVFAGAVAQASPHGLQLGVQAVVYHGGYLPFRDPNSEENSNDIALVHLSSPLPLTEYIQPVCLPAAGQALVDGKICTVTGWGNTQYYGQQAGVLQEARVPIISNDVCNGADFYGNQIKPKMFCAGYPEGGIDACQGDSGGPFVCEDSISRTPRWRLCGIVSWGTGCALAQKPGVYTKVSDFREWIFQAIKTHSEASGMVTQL
T1 sequence (P05981 1-162 partner limits assumed): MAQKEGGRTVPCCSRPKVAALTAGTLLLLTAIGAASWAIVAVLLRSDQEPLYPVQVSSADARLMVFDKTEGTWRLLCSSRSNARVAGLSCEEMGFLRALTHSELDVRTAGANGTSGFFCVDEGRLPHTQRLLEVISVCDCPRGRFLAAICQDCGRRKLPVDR

Turning to `CC(=O)N[C@H]1Cc2ccc(cc2)OCCCC[C@@H](C(=O)N[C@@H](CCCNC(=N)N)C(=O)c2nc3ccccc3s2)NC(=O)[C@@H](Cc2c[nH]c3ccccc23)NC1=O` [8b], the IC50 was 0.54 nM in assay [1] (30 min incubation, Boc-QAR-AMC at Km, read-out: Hepsin IC50) and 3.3 nM in assay [2].
With `CC(=O)N[C@@H](Cc1cncn1COCc1ccccc1)C(=O)N[C@@H](CCC(C)C)C(=O)N[C@@H](CCCNC(=N)N)C(=O)c1nc2ccccc2s1` [JH1142-2, N-[(S)-1-[(1,3-benzothiazol-2-yl)carbonyl]-4-guanidinobutyl](S)-2-[(S)-2-acetylamino-3-{1-[(benzyloxy)methyl]-5-imidazolyl}propionylamino]-5-methylhexanamide], the IC50 in assay [3] (read-out: Matriptase IC50) came out at 1.16 nM; in assay [1] (read-out: Hepsin IC50), 0.93 nM; in assay [2], 131 nM.
Regarding `C=CCOC(=O)CC[C@H](NC(=O)[C@H](CCC(C)C)NC(C)=O)C(=O)N[C@@H](Cc1ccc(F)cc1)C(=O)N[C@@H](CCCNC(=N)N)C(=O)c1nc2ccccc2s1` [MF1140, allyl (S)-4-[(S)-1-acetylamino-4-methylpentylcarbonylamino]-4-[N-(S)-2-(p-fluorophenyl)-1-[N-(S)-1-[(1,3-benzothiazol-2-yl)carbonyl]-4-guanidinobutylcarbamoyl]ethylcarbamoyl]butyrate], the IC50 in assay [3] amounted to 2.89 nM; in assay [1], 11 nM; in assay [4], 0.001 nM.
`N=C(N)NCCC[C@H](NC(=O)[C@H](Cc1cccc(F)c1)NC(=O)OCC1c2ccccc2-c2ccccc21)C(=O)c1nc2ccccc2s1` [MF1141, (S)-2-(m-fluorophenyl)-1-[N-(S)-1-[(1,3-benzothiazol-2-yl)carbonyl]-4-guanidinobutylcarbamoyl] ethyl (9H-fluoren-9-yl)methanecarbamate]: the IC50 in assay [3] (read-out: Matriptase IC50) amounted to 1140 nM; in assay [1] (read-out: Hepsin IC50) it was 346 nM; in assay [4] (read-out: TMPRSS2 IC50) it was 12.8 nM.
In the case of `N=C(N)NCCC[C@H](NC(=O)[C@H](CC1CCCCC1)NC(=O)OCC1c2ccccc2-c2ccccc21)C(=O)c1nc2ccccc2s1` [MF1142, (S)-2-cyclohexyl-1-[N-(S)-1-[(1,3-benzothiazol-2-yl)carbonyl]-4-guanidinobutylcarbamoyl] ethyl (9H-fluoren-9-yl)methanecarbamate], the figures for the IC50 in assay [3] (read-out: Matriptase IC50), in assay [1] (read-out: Hepsin IC50) and in assay [4] (read-out: TMPRSS2 IC50) were 2810 nM, 2390 nM and 0.04 nM, respectively.
Consider `N=C(N)NCCC[C@H](NC(=O)[C@H](Cc1cccc2ccccc12)NC(=O)OCC1c2ccccc2-c2ccccc21)C(=O)c1nc2ccccc2s1` [MF1144, (S)-2-(1-naphthyl)-1-[N-(S)-1-[(1,3-benzothiazol-2-yl)carbonyl]-4-guanidinobutylcarbamoyl] ethyl (9H-fluoren-9-yl)methanecarbamate], for which the concentration for half-maximal inhibition (IC50) in assay [3] (read-out: Matriptase IC50) is greater than 20000 nM; in assay [1] (read-out: Hepsin IC50) it was 1410 nM; in assay [4] (read-out: TMPRSS2 IC50), greater than 20000 nM.
Consider `N=C(N)NCCC[C@H](NC(=O)[C@H](CCC1CCCCC1)NC(=O)OCC1c2ccccc2-c2ccccc21)C(=O)c1nc2ccccc2s1` [MF1149, (S)-3-cyclohexyl-1-[N-(S)-1-[(1,3-benzothiazol-2-yl)carbonyl]-4-guanidinobutylcarbamoyl] propyl (9H-fluoren-9-yl)methanecarbamate], for which the IC50 in assay [3] (read-out: Matriptase IC50) is 18 nM; in assay [1] (read-out: Hepsin IC50), 2310 nM; in assay [4] (read-out: TMPRSS2 IC50) it was greater than 20000 nM.
As to `CCC[C@H](NC(=O)OCC1c2ccccc2-c2ccccc21)C(=O)N[C@@H](CCCNC(=N)N)C(=O)c1nc2ccccc2s1` [MF1150, (S)-1-[N-(S)-1-[(1,3-benzothiazol-2-yl)carbonyl]-4-guanidinobutylcarbamoyl] butyl (9H-fluoren-9-yl)methanecarbamate], the IC50 in assay [3] (read-out: Matriptase IC50) was found to be 5.44 nM; in assay [1] (read-out: Hepsin IC50), 29.5 nM; in assay [4] (read-out: TMPRSS2 IC50), 19.3 nM.
For the compound `N=C(N)NCCC[C@H](NC(=O)[C@H](CCc1ccccc1)NC(=O)OCC1c2ccccc2-c2ccccc21)C(=O)c1nc2ccccc2s1` [MF1152, (S)-1-[N-(S)-1-[(1,3-benzothiazol-2-yl)carbonyl]-4-guanidinobutylcarbamoyl]-3-phenylpropyl (9H-fluoren-9-yl)methanecarbamate], the IC50 is 47.4 nM in assay [3] (read-out: Matriptase IC50), greater than 20000 nM in assay [1] (read-out: Hepsin IC50) and 200 nM in assay [4] (read-out: TMPRSS2 IC50).
The corresponding values for `N=C(N)NCCC[C@H](NC(=O)[C@H](Cc1cn(Cc2ccccc2)cn1)NC(=O)OCC1c2ccccc2-c2ccccc21)C(=O)c1nc2ccccc2s1` [MF1158, (S)-2-(1-benzyl-4-imidazolyl)-1-[N-(S)-1-[(1,3-benzothiazol-2-yl)carbonyl]-4-guanidinobutylcarbamoyl] ethyl (9H-fluoren-9-yl)methanecarbamate] are 39.9 nM, greater than 20000 nM and 68.7 nM.
As to `N=C(N)NCCC[C@H](NC(=O)[C@H](CCCCOCc1ccccc1)NC(=O)OCC1c2ccccc2-c2ccccc21)C(=O)c1nc2ccccc2s1` [MF1165, (S)-5-(benzyloxy)-1-[N-(S)-1-[(1,3-benzothiazol-2-yl)carbonyl]-4-guanidinobutylcarbamoyl] pentyl (9H-fluoren-9-yl)methanecarbamate], the results for the IC50 in assay [3] (read-out: Matriptase IC50), in assay [1] (read-out: Hepsin IC50) and in assay [4] (read-out: TMPRSS2 IC50) were 31.1 nM, 0.1 nM and 0.864 nM, respectively.
In the same order, the values of `N=C(N)NCCC[C@H](NC(=O)[C@H](Cc1csc2ccccc12)NC(=O)OCc1ccccc1)C(=O)c1nc2ccccc2s1` [MF1168, (S)-2-(1-benzothiophen-3-yl)-1-[N-(S)-1-[(1,3-benzothiazol-2-yl)carbonyl]-4-guanidinobutylcarbamoyl] ethyl-phenylmethanecarbamate] are greater than 20000 nM, greater than 20000 nM and 0.264 nM.
For `N=C(N)NCCC[C@H](NC(=O)[C@H](CCC(=O)OCc1ccccc1)NC(=O)OCc1ccccc1)C(=O)c1nc2ccccc2s1` [MF1169, benzyl (S)-4-[benzyl(oxycarbonylamino)]-4-[N-(S)-1-[(1,3-benzothiazol-2-yl)carbonyl]-4-guanidinobutylcarbamoyl] butyrate], the IC50 in assay [3] (read-out: Matriptase IC50) was 290 nM; in assay [1] (read-out: Hepsin IC50), greater than 20000 nM; in assay [4] (read-out: TMPRSS2 IC50), 75 nM.
In the same order, the values of `N=C(N)NCCC[C@H](NC(=O)[C@@H](NC(=O)OCc1ccccc1)c1cccs1)C(=O)c1nc2ccccc2s1` [MF1177, (R)-[N-(S)-1-[(1,3-benzothiazol-2-yl)carbonyl]-4-guanidinobutylcarbamoyl] (2-thienyl)methyl-phenylmethanecarbamate] are 37.6 nM, 6.07 nM and 0.211 nM.
In the case of `N=C(N)NCCC[C@H](NC(=O)[C@H](Cc1cccs1)NC(=O)OCC1c2ccccc2-c2ccccc21)C(=O)c1nc2ccccc2s1` [MF1184, (S)-1-[N-(S)-1-[(1,3-benzothiazol-2-yl)carbonyl]-4-guanidinobutylcarbamoyl]-2-(2-thienyl)ethyl (9H-fluoren-9-yl)methanecarbamate], the IC50 in assay [3] (read-out: Matriptase IC50) turned out to be 58.7 nM; in assay [1] (read-out: Hepsin IC50), 118 nM; in assay [4] (read-out: TMPRSS2 IC50) it was 0.466 nM.
Turning to `CCC(C)[C@H](NC(C)=O)C(=O)N[C@@H](CCSC)C(=O)N[C@@H](Cc1ccccc1)C(=O)N[C@H](CCCNC(=N)N)C(=O)c1nc2ccccc2s1` (stereo partly drawn) [MM4027-1, N-[(S)-3-(methylthio)-1-[N-(S)-1-[N-(R)-1-[(1,3-benzothiazol-2-yl)carbonyl]-4-guanidinobutylcarbamoyl]-2-phenylethylcarbamoyl]propyl](2S)-2-acetylamino-3-methylvaleramide], the results for the IC50 in assay [2] and in assay [4] (read-out: TMPRSS2 IC50) were 234 nM and 5.63 nM, respectively.
With `CCC(C)[C@H](NC(C)=O)C(=O)N[C@@H](CCSC)C(=O)N[C@@H](Cc1ccccc1)C(=O)N[C@@H](CCCNC(=N)N)C(=O)c1nc2ccccc2s1` (stereo partly drawn) [MM4027-2, N-[(S)-3-(methylthio)-1-[N-(S)-1-[N-(S)-1-[(1,3-benzothiazol-2-yl)carbonyl]-4-guanidinobutylcarbamoyl]-2-phenylethylcarbamoyl]propyl](2S)-2-acetylamino-3-methylvaleramide], the IC50 in assay [3] was found to be 0.51 nM; in assay [1] (read-out: Hepsin IC50), 1.31 nM; in assay [4] (read-out: TMPRSS2 IC50), 2.96 nM.
Consider `CCC(C)[C@H](NC(C)=O)C(=O)N[C@H](Cc1cc2ccccc2[nH]1)C(=O)N[C@@H](Cc1ccccc1)C(=O)N[C@@H](CCCNC(=N)N)C(=O)c1nc2ccccc2s1` (stereo partly drawn) [MM4038, N-[(R)-2-(2-indolyl)-1-[N-(S)-1-[N-(S)-1-[(1,3-benzothiazol-2-yl)carbonyl]-4-guanidinobutylcarbamoyl]-2-phenylethylcarbamoy1]ethyl](2S)-2-acetylamino-3-methylvaleramide], for which the IC50 in assay [1] (read-out: Hepsin IC50) was 12.2 nM; in assay [2] it was 66.2 nM; in assay [4] (read-out: TMPRSS2 IC50), 0.04 nM.
Take `N=C(N)NCCC[C@H](NC(=O)[C@H](Cc1ccccc1)NC(=O)[C@H](CCC(N)=O)NC(=O)OCc1ccccc1)C(=O)c1nc2ccccc2s1` [ZFH9141]: the IC50 is 1.02 nM in assay [3] (read-out: Matriptase IC50), 1.25 nM in assay [1] (read-out: Hepsin IC50) and 0.418 nM in assay [4] (read-out: TMPRSS2 IC50).
